Measured values taken from US4469631A, “Fusion peptides comprising an expressible bacterial gene and β-endorphin” (The Regents of the University of California, priority 1982, dated 1984).

Assays:
opiate receptors = conditions: Li, C. H., et al, Proc. Natl. Acad. Sci. 76, 3276 (1979); cited from earlier work
[1] = test system: antiserum directed against mouse β-endorphin; experiment: Immunological activity: competition with 125I-labeled human β-endorphin for antiserum (radioimmunoassay); type: binding; conditions: dilution series of extract, 4° C., 24 hours; FIG. 5
Procedure: Immunological activity of β-endorphin produced according to the present invention was measured by its ability to compete with radioactively labeled human β-endorphin for antiserum directed against mouse β-endorphin. The human hormone differs from that of mouse only at position 27, where a tyrosine is present instead of histidine residue. […] Antiserum to mouse β-endorphin was prepared as described by Allen, et al., Proc. Nat'l. Acad. Sci. 75, 4972 (1978). […]
In the assay, a dilution series of β-endorphin sample prepared according to the present invention was incubated with a fixed amount of labeled human endorphin and a fixed amount of antiserum. […] The percentage of radioactivity remaining in the pellet was compared to the total radioactivity determined prior to incubation and plotted as a function of the concentration of the cell extracts.

[2] = test system: prostaglandin E1-stimulated adenylate cyclase of NG 108-15 cells; experiment: Inhibition of prostaglandin E1-stimulated adenylate cyclase activity in neuroblastoma-glioma hybrid cell line NG 108-15; type: biochemical; conditions: result in words; for reversal of the adenylate cyclase inhibition by naloxone: naloxone added
[3] = test system: rat brain opiate receptors; experiment: Receptor binding activity: competitive inhibition of binding of labeled opiate agonist or antagonist to rat brain membranes; conditions: result in words
Procedure: The opiate receptor preparation was prepared from rat membrane preparation isolated from male Sprague-Dawley rats (200-220 g) killed by decapitation. The brains, except for the cerebellum, were homogenized in 40 volumes of ice-cold Tris-HCl buffer pH 7.7. The homogenates were centrifuged at 600 g for 5 minutes, then the supernatant fluid was centrifuged at 49,000 g at 4° C. for 15 minutes. The pellets were re-suspended in 5 ml of 0.05 M Tris-HCl buffer pH 7.7 and incubated at 37° C. for 30 minutes, then centrifuged at 49,000 g at 4° C. for another 15 minutes. The final pellet from each rat brain was then re-suspended in 40 ml of 0.05 M Tris-HCl buffer pH 7.7 containing 100 μg/ml of Bacitracin and used for the binding assays.
The binding experiments were performed either at 25° C. for 20 minutes or at 0° C. for 3 hours. The reaction mixtures contained 1 ml of the rat membrane preparation as described, 1.5 nM of ^3 H-methionine enkephalinamide (38 Ci/m Mole) or ^3 H-naloxone (25 Ci/m Mole) together with bacterial extracts from pβgal or pβgal-end transformed cultures (4.5 mg protein for enkephalinamide rections and 0.65 μg protein for naloxone reactions). At the end of the binding reaction the mixture was filtered under vacuum over glass fiber filters (Whatman, Clifton, N.J., GH-B filters). […]

[4] = test system: prostaglandin E1-stimulated adenylate cyclase of NG 108-15 cells; conditions: literature; cited from earlier work

**Q.** With Gly^31 -endorphinamide as the compound, how does the “opiate agonist potency relative to endorphin” value (opiate receptors) read?
**A.** more potent opiate agonists than endorphin itself

**Q.** What does the source list for “β-endorphin (YGGFMTSEKSQTPLVTLFKNAIIKNAHKKGQ; Beta-endorphin; UniProt P01193 205-235, looked up) [mouse β-endorphin, 31 amino acid polypeptide, released from the bacterial β-galactosidase fusion protein according to the invention]”?
**A.** competition with labeled human β-endorphin for antiserum against mouse β-endorphin [1]: immunologically reactive with antiserum raised against mouse endorphin; inhibition of prostaglandin E1 stimulation of adenylate cyclase activity [2]: inhibited the adenylate cyclase activity; reversal of the adenylate cyclase inhibition by naloxone [2]: the inhibition was reversed by the addition of naloxone; reversal of the adenylate cyclase inhibition by naloxone ([2]; listed as Endorphin): inhibition was reversed by addition of the opiate antagonist naloxone; inhibition of prostaglandin E1 stimulation of adenylate cyclase activity ([2]; listed as Endorphin): significant inhibition; displacement of opiate agonist (enkephalinamide) and opiate antagonist (naloxone) from rat brain opiate receptors [3]: effective inhibitor; displacement of opiate agonist (enkephalinamide) and opiate antagonist (naloxone) from rat brain opiate receptors ([3]; listed as Endorphin): displaced both the opiate agonist and the opiate antagonist

**Q.** For `CN1CC[C@]23c4c5ccc(O)c4O[C@H]2[C@@H](O)C=C[C@H]3[C@H]1C5` [morphine], which “inhibition of prostaglandin E1 stimulation of adenylate cyclase” value [4] is on record?
**A.** This stimulation is inhibited by morphine

**Q.** With Gly^31 -endorphinylglycine as the compound, how does the “opiate agonist potency relative to endorphin” value (opiate receptors) read?
**A.** more potent opiate agonists than endorphin itself

**Q.** For `C=CCN1CC[C@]23c4c5ccc(O)c4O[C@H]2C(=O)CC[C@@]3(O)[C@H]1C5` [naloxone], which “prevention of the inhibitory effect of morphine on stimulated adenylate cyclase” value [4] is on record?
**A.** the inhibitory affect of morphine can be prevented by naloxone

**Q.** Which “opiate agonist potency relative to endorphin” value (opiate receptors) does the source give for “Gly^31 -endorphin (YGGFMTSEKSQTPLVTLFKNAIIKNAYKKGG; Beta-endorphin; UniProt P01189 237-267, looked up, variant E31G) ["super-agonist" endorphin analog described by Li, C; H]” here?
**A.** more potent opiate agonists than endorphin itself
